# Experimental data from US20110039763A1, “TARGETED ANTIMICROBIAL MOIETIES” (C3 JIAN, INC., priority 2009, published 2011).
# “Also recorded” adds a separate entry of the source.
# System: microorganisms
# Assay: Targeting peptide binding to target microorganisms (Tables 3, 10, 12)
# Details: peptide binding in aqueous buffers that varied with peptide solubility; preferably 1x PBS
# From the text: In certain embodiments, the targeting moiety comprises one or more targeting peptides that bind particular bacteria, fungi, and/or yeasts, and/or algae, and/or viruses and/or that bind particular groups of bacteria, and/or groups of fungi, and/or groups of yeasts, and/or groups of algae.
# In certain embodiments the targeting peptides include peptides comprising or consisting of one or more of the amino acid sequences shown in Table 3 (SEQ ID NOs:13-1566). In various embodiments the peptides include peptides comprising or consisting of the retro, inverso, retro-inverso, and/or beta form of one or more of the amino acid sequences shown in Table 3. Also contemplated are circular permutations of these sequences as well as peptides comprising or consisting of the retro, inverso, retro-inverso, and/or beta form of such circular permutations.
# In certain embodiments the targeting peptide can comprise one or more domains capable of binding, specifically binding, or preferentially binding to a microorganism, e.g., a target microbial organism (see, e.g., Table 3). In certain embodiment, the targeting peptide be identified via screening peptide libraries. For example, a phage display peptide library can be screened against a target microbial organism or a desired antigen or epitope thereof. Any peptide identified through such screening can be used as a targeting peptide for the target microbial organism.
row,Substance,Target(s) (microorganism bound by the targeting peptide)
1,1T-4 (LDAYGELVGGN; Peptide with targeting and/or antimicrobial activity),S. gordonii; also recorded: S. sanguinis; also recorded: S. oralis; also recorded: V. atypica; also recorded: L. casei; also recorded: S. mutans
2,1T-6 (KFINGVLSQFVLERK; Peptide with targeting and/or antimicrobial activity),S. mutans
3,1T-7 (SQRIIEPVKSPQPYPGFSVS; Peptide with targeting and/or antimicrobial activity),M. xanthus
4,1T-8 (FSVAACGEQRAVTFVLLIEDLI; Peptide with targeting and/or antimicrobial activity),M. xanthus
5,1T-9 (WAWAESPRCVSTRSNIHALAFRVEVAALT; Peptide with targeting and/or antimicrobial activity),M. xanthus
6,1T-10 (SPAGLPGDGDEA; Peptide with targeting and/or antimicrobial activity),M. xanthus
7,1T-11 (RISE; Peptide with targeting and/or antimicrobial activity),S. mutans; also recorded: S. epidermidis; also recorded: P. aeruginosa
8,1T-12 (FGNIFKGLKDVIETIVKWTAAK; Peptide with targeting and/or antimicrobial activity),C. xerosis; also recorded: C. striatum; also recorded: S. epidermidis; also recorded: S. mutans
9,1T-13 (FRSPCINNNSLQPPGVYPAR; Peptide with targeting and/or antimicrobial activity),S. aureus; also recorded: S. epidermidis; also recorded: P. aeruginosa
10,1T-14 (ALAGLAGLISGK; Peptide with targeting and/or antimicrobial activity),S. mutans; also recorded: S. aureus; also recorded: S. epidermidis; also recorded: C. xerosis
11,1T-15 (DVILRVEAQ; Peptide with targeting and/or antimicrobial activity),S. mutans
12,1T-16 (IDMR; Peptide with targeting and/or antimicrobial activity),P. aeruginosa
13,1T-17 (NNAIVYIS; Peptide with targeting and/or antimicrobial activity),S. mutans
14,1T-18 (YSKTLHFAD; Peptide with targeting and/or antimicrobial activity),S. aureus; also recorded: S. epidermidis; also recorded: C. striatum; also recorded: P. aeruginosa
15,1T-19 (PGAFRNPQMPRG; Peptide with targeting and/or antimicrobial activity),S. aureus; also recorded: S. epidermidis; also recorded: P. aeruginosa
16,1T-20 (PALVDLSNKEAVWAVLDDHS; Peptide with targeting and/or antimicrobial activity),S. mutans; also recorded: P. aeruginosa

row,Substance,Target(s) (microorganism bound by the targeting peptide)
1,1T-21 (YVEEAVRAALKKEARISTEDTPVNLPSFDC; Peptide with targeting and/or antimicrobial activity),S. mutans; also recorded: P. aeruginosa
2,1T-22 (VPLDDGTRRPEVARNRDKDRED; Peptide with targeting and/or antimicrobial activity),S. epidermidis; also recorded: P. aeruginosa
3,1T-23 (PALVDLSNKEAVWAVLDDHS; Peptide with targeting and/or antimicrobial activity),S. mutans; also recorded: P. aeruginosa
4,1T-24 (EEAEEKLAEVSQAVKRLVR; Peptide with targeting and/or antimicrobial activity),P. aeruginosa
5,1T-25 (VGLDVSVLVLFFGLQLLSVLLGAMIR; Peptide with targeting and/or antimicrobial activity),S. aureus; also recorded: S. epidermidis; also recorded: C. xerosis; also recorded: C. striatum; also recorded: P. aeruginosa
6,1T-26 (LTILPTTFFAIIVPILAVAFIAYSGFKIKGIVEHKDQW; Peptide with targeting and/or antimicrobial activity),S. mutans; also recorded: S. aureus; also recorded: S. epidermidis; also recorded: C. jeikeium; also recorded: C. xerosis; also recorded: C. striatum; also recorded: P. aeruginosa
7,1T-27 (ALFVSLEQFLVVVAKSVFALCHSGTLS; Peptide with targeting and/or antimicrobial activity),S. mutans; also recorded: S. aureus; also recorded: S. epidermidis; also recorded: C. jeikeium; also recorded: C. xerosis; also recorded: C. striatum; also recorded: P. aeruginosa
8,1T-28 (VSRDEAMEFIDREWTTLQPAGKSHA; Peptide with targeting and/or antimicrobial activity),P. aeruginosa
9,1T-29 (GSVIKKRRKRMSKKKHRKMLRRTRVQRRKLGK; Peptide with targeting and/or antimicrobial activity),S. epidermidis; also recorded: C. jeikeium; also recorded: C. xerosis; also recorded: C. striatum; also recorded: P. aeruginosa; also recorded: S. mutans; also recorded: S. aureus
10,1T-30 (GKAKPYQVRQVLRAVDKLETRRKKGGR; Peptide with targeting and/or antimicrobial activity),S. aureus; also recorded: S. epidermidis; also recorded: C. xerosis; also recorded: C. striatum; also recorded: P. aeruginosa
11,1T-31 (NATGTDIGEVTLTLGRFS; Peptide with targeting and/or antimicrobial activity),S. mutans; also recorded: P. aeruginosa
12,1T-32 (VSFLAGWLCLGLAAWRLGNA; Peptide with targeting and/or antimicrobial activity),S. mutans
13,1T-33 (VRTLTILVIFIFNYLKSISYKLKQPFENNLAQSMISI; Peptide with targeting and/or antimicrobial activity),S. aureus; also recorded: S. epidermidis; also recorded: C. jeikeium; also recorded: C. xerosis; also recorded: C. striatum; also recorded: P. aeruginosa
14,1T-34 (AFWLNILLTLLGYIPGIVHAVYIIAKR; Peptide with targeting and/or antimicrobial activity),S. aureus; also recorded: S. epidermidis; also recorded: C. jeikeium; also recorded: C. xerosis; also recorded: C. striatum; also recorded: P. aeruginosa
15,1T-35 (EICLTLVFPIRGSYSEAAKFPVPIHIVEDGTVELPK; Peptide with targeting and/or antimicrobial activity),P. aeruginosa
16,1T-36 (VYRHLRFIDGKLVEIRLERK; Peptide with targeting and/or antimicrobial activity),S. aureus; also recorded: S. epidermidis; also recorded: C. jeikeium; also recorded: C. xerosis; also recorded: C. striatum; also recorded: P. aeruginosa
